Results taken from US20150056191A1, “IGF1 BIOMARKER FOR IGF1R INHIBITOR THERAPY” (MERCK SHARP & DOHME CORP., priority 2012, published 2015).
“Also recorded” adds a separate entry of the source. Like-named read-outs stand apart in the source and are kept apart here.

Experiments:
H2122 NSCLC cells = assay: H2122 cell growth with and without IGF1 (Cell Titer-Glo); format: cell-based; conditions: 10 ug/ml MK-0646, 96 hours, 2% fetal calf serum
Protocol: H2122 cells were obtained from the American Type Culture Collection (ATCC) and propagated according to the conditions provided by ATCC in media at 37° C. H2122 cells in low serum (2% fetal calf serum (Hyclone), at 2000 cells/well, were plated in a 96 well plate and incubated with 10 ug/ml MK-0646 or vehicle control for 96 hours in the presence or absence of IGF1 (10 ng; SIGMA). Cells were harvested at day 0 and day 4 and cell growth was measured by Cell Titer-Glo® ([…]) according to manufacturer instructions. The relative cell proliferation was calculated by normalizing to day 0 levels.

IGF1 receptor = IGF1 receptor (Homo sapiens, UniProt P08069); assay: Blocking of IGF1 binding to the IGF1 receptor
[1] = system: primary colorectal xenograft tumor models; assay: Primary colorectal xenograft tumor models, tumor growth inhibition; format: in vivo
Protocol: Primary colorectal xenograft tumor models were established from 10 independent colorectal tumors obtained directly from cancer patients. The relative levels of IGF1RNA expression were determined by gene expression profiling using genomic microarrays. […] These preclinical data provided in vivo evidence that increase sensitivity to the anti-IGF1R antibody, MK-0646, was strongly associated with increase IGF1RNA expression in the primary tumors.

[2] = cited from earlier work

For “MK-0646: anti-IGF1R monoclonal antibody dalotuzumab (MK0646; CAS no. 1005389-60-5)”, which “proliferation of H2122 cells” value (H2122 NSCLC cells; in the absence of IGF1) is on record?
Its value is “did not significantly alter”.

What about the “IGF1-dependent proliferation / relative cell growth of H2122 cells” value (H2122 NSCLC cells; in the presence of IGF1 (10 ng)) of the same substance?
Its value is “statistically significant growth inhibition; also recorded: significantly blocked”.

And the “blocking IGF1 ability to bind directly to the IGF1 receptor” value (IGF1 receptor)?
The value was “capable of blocking”.

What about the tumor growth inhibition ([1]; the 2 colorectal xenograft models with increased IGF1 RNA expression) of the same substance?
The tumor growth inhibition was “at least 50%”.

And the tumor growth inhibition ([1]; the 8 xenograft tumor models with low IGF1 expression)?
Its tumor growth inhibition is “minimal or no tumor growth inhibition”.

And the MTD ([2]; with G alone)?
The MTD was 10 mg/kg.

And the MTD ([2]; with Gemcitabine (G) and Erlotinib (E))?
Its MTD is 5 mg/kg.
